What is called pIC50 is the negative decadic logarithm of the IC50, by convention in mol/L. A word on the AUC: it is concentration integrated over time. Low values mean low exposure, high ones high exposure.

The text below walks through data of ChEMBL document CHEMBL4028801, “A multifactorial approach to hepatobiliary transporter assessment enables improved therapeutic compound development” (Toxicol Sci, 2013).

The target of data set [1] is ATP-binding cassette sub-family C member 2 (Homo sapiens, UniProt Q92887). The data set can be described thus: Inhibition of human MRP2 overexpressed in Sf9 cell membrane vesicles assessed as uptake of [3H]-estradiol-17beta-D-glucuronide in presence of ATP and GSH measured after 20 mins by membrane vesicle transport assay.
The nature of data set [2]: Drug concentration at steady state in human at 20 to 80 mg, po QD after 24 hrs. It is filed as ADME, organism-based. Particulars: in vivo, read-out: Css.
Data set [3] in a line: AUC in human at 20 to 80 mg, po QD after 24 hrs. The class given is ADME, organism-based. Particulars: in vivo.
The nature of data set [4]: Ratio of drug concentration at steady state in human at 20 to 80 mg, po QD after 24 hrs to IC50 for human BSEP overexpressed in Sf9 insect cells. It is filed as ADME, organism-based. Particulars: in vivo.
Data set [5] can be described thus: Ratio of drug concentration at steady state in human at 20 to 80 mg, po QD after 24 hrs to IC50 for human MRP3 overexpressed in Sf9 insect cells. Particulars: in vivo. It is filed as ADME, organism-based.
A short description of data set [6]: Ratio of drug concentration at steady state in human at 20 to 80 mg, po QD after 24 hrs to IC50 for human MRP4 overexpressed in Sf9 insect cells. It is filed as ADME, organism-based. Particulars: in vivo.
Data set [7] concerns the target ATP-binding cassette sub-family C member 3 (Homo sapiens, UniProt O15438). The data set can be described thus: Inhibition of human MRP3 overexpressed in Sf9 insect cell membrane vesicles assessed as uptake of [3H]-estradiol-17beta-D-glucuronide in presence of ATP and GSH measured after 10 mins by membrane vesicle transport assay. It is filed as ADME, cell-based.
The target of data set [8] is T1, ATP-binding cassette sub-family C member 4 (Homo sapiens, UniProt O15439).
T1 sequence (O15439 whole entry): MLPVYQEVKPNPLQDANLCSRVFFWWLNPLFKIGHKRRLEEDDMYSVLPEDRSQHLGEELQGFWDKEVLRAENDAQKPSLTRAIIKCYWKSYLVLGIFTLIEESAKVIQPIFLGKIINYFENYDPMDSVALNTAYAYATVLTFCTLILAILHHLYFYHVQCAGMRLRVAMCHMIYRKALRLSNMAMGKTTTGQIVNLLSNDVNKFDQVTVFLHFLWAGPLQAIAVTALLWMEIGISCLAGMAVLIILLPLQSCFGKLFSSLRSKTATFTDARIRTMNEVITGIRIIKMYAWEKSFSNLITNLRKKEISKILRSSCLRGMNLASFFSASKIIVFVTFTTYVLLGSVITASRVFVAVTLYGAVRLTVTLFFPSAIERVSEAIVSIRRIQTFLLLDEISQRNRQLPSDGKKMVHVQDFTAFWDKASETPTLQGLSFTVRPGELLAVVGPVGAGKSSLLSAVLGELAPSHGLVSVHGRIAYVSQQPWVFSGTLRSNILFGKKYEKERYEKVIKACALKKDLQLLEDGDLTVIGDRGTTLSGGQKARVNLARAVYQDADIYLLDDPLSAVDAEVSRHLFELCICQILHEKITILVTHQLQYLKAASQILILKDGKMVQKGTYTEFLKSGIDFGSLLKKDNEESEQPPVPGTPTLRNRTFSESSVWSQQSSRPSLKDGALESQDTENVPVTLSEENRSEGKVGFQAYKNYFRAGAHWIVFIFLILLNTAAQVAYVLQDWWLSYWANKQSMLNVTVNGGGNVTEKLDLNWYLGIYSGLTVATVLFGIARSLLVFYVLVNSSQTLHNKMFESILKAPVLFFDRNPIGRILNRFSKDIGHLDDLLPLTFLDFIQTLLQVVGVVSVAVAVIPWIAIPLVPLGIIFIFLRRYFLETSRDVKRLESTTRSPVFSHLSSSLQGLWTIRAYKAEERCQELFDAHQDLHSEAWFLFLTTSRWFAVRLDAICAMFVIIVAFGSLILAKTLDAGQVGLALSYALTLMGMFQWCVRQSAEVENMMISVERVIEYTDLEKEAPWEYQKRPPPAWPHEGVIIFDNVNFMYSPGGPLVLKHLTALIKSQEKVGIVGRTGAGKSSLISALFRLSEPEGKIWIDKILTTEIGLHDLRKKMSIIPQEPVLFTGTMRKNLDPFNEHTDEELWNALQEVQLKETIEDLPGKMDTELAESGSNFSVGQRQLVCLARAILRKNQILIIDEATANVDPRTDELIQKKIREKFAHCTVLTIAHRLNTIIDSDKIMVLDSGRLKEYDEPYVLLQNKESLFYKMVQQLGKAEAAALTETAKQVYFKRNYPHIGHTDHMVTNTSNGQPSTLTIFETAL
Nature of the data set: Inhibition of human MRP4 overexpressed in Sf9 cell membrane vesicles assessed as uptake of [3H]-estradiol-17beta-D-glucuronide in presence of ATP and GSH measured after 20 mins by membrane vesicle transport assay. The class given is ADME, cell-based.

Data set [9] in a line: AUC in patient with chronic phase CML at 70 to 90 mg, po BID after 12 hrs. It is filed as ADME, organism-based. Particulars: human, in vivo.
Data set [10] in a line: AUC in patient with advanced phase CML and Ph+ ALL at 100 mg, po BID after 12 hrs. Particulars: human, in vivo. Details: dose 100 mg, time < 12 hr, route oral. The class given is ADME, organism-based.
A short description of data set [11]: Ratio of drug concentration at steady state in patient with advanced phase CML and Ph+ ALL at 100 mg, po BID after 12 hrs to IC50 for human BSEP overexpressed in Sf9 insect cells. The class given is ADME, organism-based. Particulars: in vivo.
The next data set concerns the target Bile salt export pump (Homo sapiens, UniProt O95342). The data set can be described thus: Inhibition of human BSEP overexpressed in Sf9 cell membrane vesicles assessed as uptake of [3H]-taurocholate in presence of ATP measured after 15 to 20 mins by membrane vesicle transport assay. It is filed as ADME, cell-based.
The nature of data set [12]: Ratio of drug concentration at steady state in patient with chronic phase CML at 70 to 90 mg, po BID after 12 hrs to IC50 for human BSEP overexpressed in Sf9 insect cells. The class given is ADME, organism-based. Particulars: in vivo.
A short description of data set [13]: Drug concentration at steady state in patient with chronic phase CML at 70 to 90 mg, po BID after 12 hrs. It is filed as ADME, organism-based. Particulars: human, in vivo, read-out: Css.
Data set [14] is described as follows: Ratio of drug concentration at steady state patient with chronic phase CML at 70 to 90 mg, po BID after 12 hrs to IC50 for human MRP4 overexpressed in Sf9 insect cells. It is filed as ADME, organism-based. Particulars: in vivo.
Data set [15] can be described thus: Drug concentration at steady state in patient with advanced phase CML and Ph+ ALL at 100 mg, po BID after 12 hrs. It is filed as ADME, organism-based. Particulars: human, in vivo, read-out: Css.
A short description of data set [16]: Ratio of drug concentration at steady state in patient with advanced phase CML and Ph+ ALL at 100 mg, po BID after 12 hrs to IC50 for human MRP4 overexpressed in Sf9 insect cells. The class given is ADME, organism-based. Particulars: in vivo.
The nature of data set [17]: AUC in human at 5 to 10 mg, po after 24 hrs. It is filed as ADME, organism-based. Particulars: in vivo.
In another data set the test system is Homo sapiens. Nature of the data set: Drug concentration at steady state in human at 5 to 10 mg, po after 24 hrs. Particulars: in vivo.
Data set [18] can be described thus: Drug concentration at steady state in human at 60 to 120 mg, po QD after 24 hrs. It is filed as ADME, organism-based. Particulars: in vivo, read-out: Css.
A short description of data set [19]: Ratio of drug concentration at steady state in human at 60 to 120 mg, po QD after 24 hrs to IC50 for human BSEP overexpressed in Sf9 insect cells. It is filed as ADME, organism-based. Particulars: in vivo.
A short description of data set [20]: AUC in human at 60 to 120 mg, po QD after 24 hrs. The class given is ADME, organism-based. Particulars: in vivo.
Data set [21] is described as follows: Ratio of drug concentration at steady state in human at 60 to 120 mg, po QD after 24 hrs to IC50 for human MRP4 overexpressed in Sf9 insect cells. The class given is ADME, organism-based. Particulars: in vivo.

The structures appear in SMILES notation. pIC50: −log10 of the molar value.

Sequence of ATP-binding cassette sub-family C member 3 (O15438 whole entry): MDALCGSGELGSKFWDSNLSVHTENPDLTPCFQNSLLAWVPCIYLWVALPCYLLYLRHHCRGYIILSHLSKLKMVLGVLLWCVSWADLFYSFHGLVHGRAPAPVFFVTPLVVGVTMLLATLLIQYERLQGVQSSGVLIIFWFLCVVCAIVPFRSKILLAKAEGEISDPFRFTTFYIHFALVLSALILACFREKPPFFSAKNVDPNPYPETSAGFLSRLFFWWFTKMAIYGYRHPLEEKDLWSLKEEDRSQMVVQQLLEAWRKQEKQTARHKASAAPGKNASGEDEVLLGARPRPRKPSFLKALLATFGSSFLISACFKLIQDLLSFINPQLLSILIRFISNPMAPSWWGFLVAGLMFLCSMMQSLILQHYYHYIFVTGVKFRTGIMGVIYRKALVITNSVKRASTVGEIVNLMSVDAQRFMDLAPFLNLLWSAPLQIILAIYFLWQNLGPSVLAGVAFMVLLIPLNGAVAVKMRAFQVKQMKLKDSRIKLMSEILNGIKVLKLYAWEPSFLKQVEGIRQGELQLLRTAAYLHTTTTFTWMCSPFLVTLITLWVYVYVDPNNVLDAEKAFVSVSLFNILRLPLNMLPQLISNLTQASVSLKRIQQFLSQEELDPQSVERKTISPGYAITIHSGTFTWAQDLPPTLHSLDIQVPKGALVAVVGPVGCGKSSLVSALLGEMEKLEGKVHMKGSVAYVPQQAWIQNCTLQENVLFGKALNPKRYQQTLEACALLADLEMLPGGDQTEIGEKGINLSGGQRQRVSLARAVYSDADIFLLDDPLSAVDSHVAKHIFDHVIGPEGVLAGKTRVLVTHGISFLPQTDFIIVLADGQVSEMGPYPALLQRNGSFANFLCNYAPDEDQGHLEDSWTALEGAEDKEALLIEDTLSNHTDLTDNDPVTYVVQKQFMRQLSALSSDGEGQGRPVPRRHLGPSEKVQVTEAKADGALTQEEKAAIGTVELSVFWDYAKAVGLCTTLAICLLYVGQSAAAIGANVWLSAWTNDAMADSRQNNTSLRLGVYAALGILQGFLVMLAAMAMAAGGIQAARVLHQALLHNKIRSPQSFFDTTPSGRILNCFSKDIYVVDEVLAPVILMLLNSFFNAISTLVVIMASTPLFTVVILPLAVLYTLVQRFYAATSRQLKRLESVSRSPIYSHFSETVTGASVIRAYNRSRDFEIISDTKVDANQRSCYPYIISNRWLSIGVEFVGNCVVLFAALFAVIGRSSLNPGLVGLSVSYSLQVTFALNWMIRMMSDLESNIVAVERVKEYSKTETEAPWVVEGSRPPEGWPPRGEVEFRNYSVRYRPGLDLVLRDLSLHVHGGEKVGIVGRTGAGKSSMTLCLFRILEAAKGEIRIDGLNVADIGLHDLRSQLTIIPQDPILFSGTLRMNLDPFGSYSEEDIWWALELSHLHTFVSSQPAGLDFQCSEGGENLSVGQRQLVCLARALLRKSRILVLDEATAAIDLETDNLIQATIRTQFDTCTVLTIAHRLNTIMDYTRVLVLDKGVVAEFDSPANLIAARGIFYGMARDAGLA
Sequence of ATP-binding cassette sub-family C member 2 (Q92887 whole entry): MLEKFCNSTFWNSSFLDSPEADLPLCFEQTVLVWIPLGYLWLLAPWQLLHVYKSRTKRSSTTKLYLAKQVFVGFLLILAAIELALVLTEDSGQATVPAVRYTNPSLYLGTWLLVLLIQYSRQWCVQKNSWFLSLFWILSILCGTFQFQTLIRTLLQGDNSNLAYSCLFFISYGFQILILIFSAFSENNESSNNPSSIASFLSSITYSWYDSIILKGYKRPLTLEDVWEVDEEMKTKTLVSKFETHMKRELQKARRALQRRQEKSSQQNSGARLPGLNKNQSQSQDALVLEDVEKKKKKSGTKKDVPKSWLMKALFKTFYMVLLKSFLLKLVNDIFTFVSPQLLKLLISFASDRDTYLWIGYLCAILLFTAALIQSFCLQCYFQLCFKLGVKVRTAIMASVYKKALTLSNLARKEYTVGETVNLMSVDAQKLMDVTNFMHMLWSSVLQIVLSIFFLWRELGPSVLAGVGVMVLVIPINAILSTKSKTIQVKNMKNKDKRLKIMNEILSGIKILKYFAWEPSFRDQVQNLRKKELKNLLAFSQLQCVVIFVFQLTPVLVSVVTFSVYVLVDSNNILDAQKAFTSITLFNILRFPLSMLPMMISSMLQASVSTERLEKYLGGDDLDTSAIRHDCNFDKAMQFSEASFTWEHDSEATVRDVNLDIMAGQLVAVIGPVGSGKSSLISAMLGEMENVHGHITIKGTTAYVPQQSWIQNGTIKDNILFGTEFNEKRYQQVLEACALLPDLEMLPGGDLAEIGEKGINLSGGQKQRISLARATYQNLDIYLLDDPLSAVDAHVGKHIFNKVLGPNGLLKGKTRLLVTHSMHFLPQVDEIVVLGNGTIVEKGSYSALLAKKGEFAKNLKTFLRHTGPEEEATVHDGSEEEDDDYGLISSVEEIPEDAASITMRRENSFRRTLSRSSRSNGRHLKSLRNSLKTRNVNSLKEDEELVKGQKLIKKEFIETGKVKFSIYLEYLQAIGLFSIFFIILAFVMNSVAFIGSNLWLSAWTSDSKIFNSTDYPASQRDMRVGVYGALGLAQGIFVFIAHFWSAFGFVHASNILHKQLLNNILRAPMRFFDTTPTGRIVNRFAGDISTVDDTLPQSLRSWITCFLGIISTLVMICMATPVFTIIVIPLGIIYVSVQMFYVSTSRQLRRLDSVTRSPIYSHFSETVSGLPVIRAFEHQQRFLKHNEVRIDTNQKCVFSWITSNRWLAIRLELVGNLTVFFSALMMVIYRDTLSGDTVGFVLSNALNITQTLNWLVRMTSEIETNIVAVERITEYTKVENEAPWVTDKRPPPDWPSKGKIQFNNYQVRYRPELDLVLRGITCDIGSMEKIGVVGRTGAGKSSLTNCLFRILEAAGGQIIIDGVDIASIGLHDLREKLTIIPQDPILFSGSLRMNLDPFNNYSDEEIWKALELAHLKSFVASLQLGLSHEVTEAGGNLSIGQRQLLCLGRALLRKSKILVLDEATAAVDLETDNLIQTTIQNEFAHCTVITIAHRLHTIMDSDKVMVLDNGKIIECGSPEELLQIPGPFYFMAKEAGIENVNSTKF
Sequence of Bile salt export pump (O95342 whole entry): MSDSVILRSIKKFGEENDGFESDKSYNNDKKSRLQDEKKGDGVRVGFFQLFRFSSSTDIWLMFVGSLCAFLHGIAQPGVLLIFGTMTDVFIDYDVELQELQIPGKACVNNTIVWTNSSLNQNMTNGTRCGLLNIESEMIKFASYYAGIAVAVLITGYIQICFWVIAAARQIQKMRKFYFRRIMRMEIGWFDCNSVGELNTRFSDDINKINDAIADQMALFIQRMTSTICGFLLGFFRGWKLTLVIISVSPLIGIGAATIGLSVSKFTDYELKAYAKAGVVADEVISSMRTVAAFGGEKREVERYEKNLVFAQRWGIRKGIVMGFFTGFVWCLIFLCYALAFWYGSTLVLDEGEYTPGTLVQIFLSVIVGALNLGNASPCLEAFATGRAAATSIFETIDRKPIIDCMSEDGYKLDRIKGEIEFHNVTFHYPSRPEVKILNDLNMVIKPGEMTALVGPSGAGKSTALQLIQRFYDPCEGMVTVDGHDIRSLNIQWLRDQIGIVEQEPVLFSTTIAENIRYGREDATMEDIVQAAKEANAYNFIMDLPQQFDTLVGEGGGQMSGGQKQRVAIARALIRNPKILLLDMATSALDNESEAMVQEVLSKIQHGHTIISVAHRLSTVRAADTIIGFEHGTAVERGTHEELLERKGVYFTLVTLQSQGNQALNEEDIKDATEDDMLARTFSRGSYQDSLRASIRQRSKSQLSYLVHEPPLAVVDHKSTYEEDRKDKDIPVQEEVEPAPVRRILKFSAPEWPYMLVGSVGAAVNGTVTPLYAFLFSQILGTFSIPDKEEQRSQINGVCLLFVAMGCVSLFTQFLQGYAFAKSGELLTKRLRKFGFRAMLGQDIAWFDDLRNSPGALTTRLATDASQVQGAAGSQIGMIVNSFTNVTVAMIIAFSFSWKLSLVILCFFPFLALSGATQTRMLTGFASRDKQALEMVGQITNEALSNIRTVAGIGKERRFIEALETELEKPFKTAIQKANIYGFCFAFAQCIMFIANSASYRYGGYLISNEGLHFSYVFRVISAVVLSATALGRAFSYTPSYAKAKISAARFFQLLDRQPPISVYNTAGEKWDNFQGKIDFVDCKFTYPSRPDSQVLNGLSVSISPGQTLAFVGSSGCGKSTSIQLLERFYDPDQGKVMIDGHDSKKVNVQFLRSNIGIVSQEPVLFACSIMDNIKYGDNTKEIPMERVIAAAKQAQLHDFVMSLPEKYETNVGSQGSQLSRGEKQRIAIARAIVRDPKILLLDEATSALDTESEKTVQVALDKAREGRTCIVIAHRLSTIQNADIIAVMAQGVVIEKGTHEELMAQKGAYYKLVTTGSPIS

Take `CCCc1nc2c(C)cc(-c3nc4ccccc4n3C)cc2n1Cc1ccc(-c2ccccc2C(=O)O)cc1`: the figures for the pIC50 in data set [1], in data set [7] and in data set [8] were less than 3.88, 4.22 and 4.44, respectively. The concentration at 24 h in [2] stood at 149 nM. This molecule yielded an AUC at 24 h in data set [3] of 3.57 µM·h. Moreover, the results for the Ratio in data set [4], in data set [5] and in [6] were 0.009, 0.002 and 0.004, respectively.

As for `Cc1nc(Nc2ncc(C(=O)Nc3c(C)cccc3Cl)s2)cc(N2CCN(CCO)CC2)n1.O` [DASATINIB], the pIC50 in data set [1] is less than 3.88; at Bile salt export pump, 4.88; in [7] it was less than 3.88; in [8] it was 4.56. For the same molecule, the AUC at 12 h in data set [9] and in data set [10] was 0.624 µM·h in each case. Further, the Ratio in data set [11] was found to be 0.004; in data set [12] it was 0.004; in data set [14] it was 0.002; in data set [16], 0.002. For the same molecule, the concentration at 12 h in data set [13] and in [15] was 52 nM in each case.

For the molecule `COc1cc2c(cc1OC)C(=O)C(CC1CCN(Cc3ccccc3)CC1)C2` (configuration not stated) [DONEPEZIL], the negative logarithm of the IC50 (pIC50) is less than 3.88 in [1], less than 3.88 in data set [7] and 4.14 in [8]. For the same molecule, in [17], the AUC at 24 h amounted to 9.76 µM·h. For the same molecule, the Css in the data set on Homo sapiens came out at 406 nM.

As to `COC(=O)C1=C(C)NC(C)=C(C(=O)OCCN(C)Cc2ccccc2)C1c1cccc([N+](=O)[O-])c1` (configuration not stated) [NICARDIPINE], in data set [18], the concentration at 24 h is 30 nM. The Ratio in data set [19] was found to be 0.004; in data set [21], 0. Also, the pIC50 in data set [1] is less than 3.88; in data set [7], less than 3.88; in data set [8] it was 4.06. Also, in data set [20], the AUC at 24 h stood at 0.72 µM·h.
